Values quoted from earlier work, collected in patent US20110311589A1 (priority 2008, published 2011).

Tested on: helminthiasis
Conditions: in vivo

Q: With `c1ccc([C@H]2CN3CCSC3=N2)cc1` [Levamisole] as the compound, how does the “Dosages too low, ineffective in treating helminthiasis” value read?
A: less than 6 mg per kg of body weight
